Source: patent publication US11478460B2, “Diaryl substituted 6,5-fused ring compounds as C5aR inhibitors” (CHEMOCENTRYX, INC., priority 2017, dated 2022)

Each molecule was assayed against C5aR (Homo sapiens (Human), UniProt P21730) (assay: Chemotaxis assay using U937 cells (C5aR mediated migration)). Conditions: read-out: Mig IC50.
Assay type: cell-based
Description: U937 cells are a monocytic cell line which express C5aR, and are available from ATCC (VA). These cells were cultured as a suspension in RPMI-1640 medium supplemented with 2 mM L-glutamine, 1.5 g/L sodium bicarbonate, 4.5 g/L glucose, 10 mM HEPES, 1 mM sodium pyruvate, and 10% FBS. Cells were grown under 5% CO2/95% air, 100% humidity at 37° C. and subcultured twice weekly at 1:6 (cells were cultured at a density range of 1×10^5 to 2×10^6 cells/mL) and harvested at 1×10^6 cells/mL. Prior to assay, cells are treated overnight with 0.5 mM of cyclic AMP (Sigma, OH) and washed once prior to use. cAMP treated U937 cells can be used in C5aR ligand binding and functional assays.
Optionally, compounds may be further assayed for their ability to inhibit chemotaxis in cells. Chemotaxis assays are performed using 5 μm pore polycarbonate, polyvinylpyrrolidone-coated filters in 96-well chemotaxis chambers (Neuroprobe; Gaithersburg, Md.) using chemotaxis buffer (Hank's balanced salt solution (HBSS) and 1% FBS). C5aR ligands (i.e., C5a, R&D Systems; Minneapolis, Minn.) are use to evaluate compound mediated inhibition of C5aR mediated migration. Other chemokines (i.e., SDF-1α; R&D Systems; Minneapolis, Minn.) are used as specificity controls. The lower chamber is loaded with 29 μl of chemokine (i.e., 0.03 nM C5a) and varying amounts of compound; the top chamber contains 100,000 U937 or neutrophil cells in 20 μl. The chambers are incubated 1.5 hours at 37° C., and the number of cells in the lower chamber quantified either by direct cell counts in five high powered fields per well or by the CyQuant assay (Molecular Probes), a fluorescent dye method that measures nucleic acid content and microscopic observation.
The compounds in Table 1, below, were prepared using the methods described above. Characterization data is provided for each compound listed. Activity is provided as follows for the chemotaxis assay using U937 cells as described herein (Example 12): +, 500 nM<IC50; ++, 50 nM<IC50≤500 nM; +++, 5 nM<IC50≤50 nM; and ++++, IC50≤5 nM.

Chain of C5aR (P21730 whole entry): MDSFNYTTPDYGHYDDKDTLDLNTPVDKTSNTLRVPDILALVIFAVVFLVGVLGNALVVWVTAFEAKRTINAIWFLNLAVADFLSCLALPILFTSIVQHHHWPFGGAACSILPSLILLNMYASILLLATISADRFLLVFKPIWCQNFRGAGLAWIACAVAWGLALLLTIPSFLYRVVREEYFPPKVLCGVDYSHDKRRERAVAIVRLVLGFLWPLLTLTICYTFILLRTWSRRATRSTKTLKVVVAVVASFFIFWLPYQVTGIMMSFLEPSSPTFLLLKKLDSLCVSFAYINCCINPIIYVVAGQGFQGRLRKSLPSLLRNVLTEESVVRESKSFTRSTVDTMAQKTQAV

Compound | IC50
CCc1cccc(CC)c1-n1nc2c(c1-c1cc(F)c(NC(N)=O)cc1F)CN(CC(C)(C)C(F)(F)F)CC2 [Example 1.001] | ≤ 5 nM
CCc1cccc(CC)c1-n1nc2c(c1-c1cc(F)c(NC(=O)CO)cc1F)CN(Cc1ccc(C(F)(F)F)cc1C(F)(F)F)CC2 [Example 1.002] | 50 to 500 nM
CCc1cccc(CC)c1-n1nc2c(c1-c1cc(F)c(NC=O)cc1F)CN(Cc1ccc(C(F)(F)F)cc1C(F)(F)F)CC2 [Example 1.003] | ≤ 5 nM
CCc1cccc(CC)c1-n1nc2c(c1-c1cc(F)c(N)cc1F)CN(Cc1ccc(C(F)(F)F)cc1C(F)(F)F)CC2 [Example 1.004] | 5 to 50 nM
CCc1cccc(CC)c1-n1nc2c(c1-c1cc(F)c(NC(N)=O)cc1F)CN(C(=O)c1ccnn1C)C(C)(C)C2 [Example 1.005] | 5 to 50 nM
CCc1cccc(CC)c1-n1nc2c(c1-c1cc(F)c(NC(C)=O)cc1F)CN(Cc1ccc(C(F)(F)F)cc1C(F)(F)F)CC2 [Example 1.006] | 5 to 50 nM
CCc1cccc(CC)c1-n1nc2c(c1-c1cc(F)c(NC(N)=O)cc1F)CN(Cc1ccccc1Cl)C(C)(C)C2 [Example 1.007] | ≤ 5 nM
CCc1cccc(CC)c1-n1nc2c(c1-c1cc(F)c(NC(N)=O)cc1F)CN(CCCC(F)(F)F)C(C)(C)C2 [Example 1.008] | ≤ 5 nM
CCc1cccc(CC)c1-n1nc2c(c1-c1cc(F)c(NC(N)=O)cc1F)CN(CC)C(C)(C)C2 [Example 1.009] | 5 to 50 nM
CCc1cccc(CC)c1-n1nc2c(c1-c1cc(F)c(NC(N)=O)cc1F)CN(CC1(C)COC1)C(C)(C)C2 [Example 1.010] | 5 to 50 nM
CCc1cccc(CC)c1-n1nc2c(c1-c1cc(F)c(NC(N)=O)cc1F)CN(Cc1cc(C(F)(F)F)ccc1C(F)(F)F)C(C)(C)C2 [Example 1.011] | ≤ 5 nM
CCc1cccc(CC)c1-n1nc2c(c1-c1cc(F)c(NC(N)=O)cc1F)CN(Cc1ccc(F)cc1C(F)(F)F)C(C)(C)C2 [Example 1.012] | ≤ 5 nM
CCc1cccc(CC)c1-n1nc2c(c1-c1cc(F)c(NC(N)=O)cc1F)CN(c1ncc(Cl)cc1Cl)[C@@H](C)C2 [Example 1.013] | ≤ 5 nM
CCc1cccc(CC)c1-n1nc2c(c1-c1cc(F)c(NC(N)=O)cc1F)CN(Cc1cccc(C(F)(F)F)c1)C(C)(C)C2 [Example 1.014] | ≤ 5 nM
CCc1cccc(CC)c1-n1nc2c(c1-c1cc(F)c(NC(N)=O)cc1F)CN(Cc1ccc(Cl)cc1C(F)(F)F)[C@@H](C)C2 [Example 1.015] | ≤ 5 nM
CCc1cccc(CC)c1-n1nc2c(c1-c1cc(F)c(NC(N)=O)cc1F)CN(Cc1ccc(C(F)(F)F)cc1C(F)(F)F)[C@@H](C)C2 [Example 1.016] | ≤ 5 nM
CCc1cccc(CC)c1-n1nc2c(c1-c1cc(F)c(NC(N)=O)cc1F)CN(Cc1ccc(C(F)(F)F)cc1)C(C)(C)C2 [Example 1.017] | ≤ 5 nM
CCc1cccc(CC)c1-n1nc2c(c1-c1cc(F)c(NC(N)=O)cc1F)CN(c1ncc(Cl)cc1Cl)[C@H](C)C2 [Example 1.018] | ≤ 5 nM
CCc1cccc(CC)c1-n1nc2c(c1-c1cc(F)c(NC(N)=O)cc1F)CN(CC1CCOCC1)CC2 [Example 1.019] | 5 to 50 nM
CCc1cccc(CC)c1-n1nc2c(c1-c1cc(F)c(NC(N)=O)cc1F)CN(CC1CCOC1)CC2 (stereo not shown) [Example 1.020] | 5 to 50 nM
CCc1cccc(CC)c1-n1nc2c(c1-c1cc(F)c(NC(N)=O)cc1F)CN(Cc1ccc(Cl)cc1C(F)(F)F)[C@H](C)C2 [Example 1.021] | ≤ 5 nM
CCc1cccc(CC)c1-n1nc2c(c1-c1cc(F)c(NC(N)=O)cc1F)CN(Cc1ccc(C(F)(F)F)cc1C(F)(F)F)[C@H](C)C2 [Example 1.022] | ≤ 5 nM
CCc1cccc(CC)c1-n1nc2c(c1-c1cc(F)c(NC(N)=O)cc1F)CN(Cc1cc(Cl)ccc1Cl)C(C)(C)C2 [Example 1.023] | ≤ 5 nM

Compound | IC50
CCc1cccc(CC)c1-n1nc2c(c1-c1cc(F)c(NC(N)=O)cc1F)CN(Cc1ccc(Cl)cc1Cl)C(C)(C)C2 [Example 1.024] | ≤ 5 nM
CCc1cccc(CC)c1-n1nc2c(c1-c1cc(F)c(NC(N)=O)cc1F)CN(C(=O)OC(C)(C)C)[C@H](C)C2 [Example 1.025] | ≤ 5 nM
CCc1cccc(CC)c1-n1nc2c(c1-c1cc(F)c(NC(N)=O)cc1F)CN(Cc1cnc(C)cc1C)CC2 [Example 1.026] | 5 to 50 nM
CCc1cccc(CC)c1-n1nc2c(c1-c1cc(F)c(NC(N)=O)cc1F)CN(Cc1ccccc1C(F)(F)F)C(C)(C)C2 [Example 1.027] | ≤ 5 nM
CCc1cccc(CC)c1-n1nc2c(c1-c1cc(F)c(NC(N)=O)cc1F)CN(Cc1cc(F)ccc1C(F)(F)F)CC2 [Example 1.028] | ≤ 5 nM
CCc1cccc(CC)c1-n1nc2c(c1-c1cc(F)c(NC(N)=O)cc1F)CN(C(=O)C1CCOCC1)C(C)(C)C2 [Example 1.029] | 5 to 50 nM
CCc1cccc(CC)c1-n1nc2c(c1-c1cc(F)c(NC(N)=O)cc1F)CN(C(=O)C(C)C)CC2 [Example 1.030] | 5 to 50 nM
CCc1cccc(CC)c1-n1nc2c(c1-c1cc(F)c(NC(N)=O)cc1F)CN(Cc1cc(Cl)ccc1C(F)(F)F)C(C)(C)C2 [Example 1.031] | ≤ 5 nM
CCc1cccc(CC)c1-n1nc2c(c1-c1cc(F)c(NC(N)=O)cc1F)CN(C(=O)C(C)C)C(C)(C)C2 [Example 1.032] | ≤ 5 nM
Cc1cccc(C)c1-n1nc2c(c1-c1cc(F)c(NC(N)=O)cc1F)CN(Cc1ccc(C(F)(F)F)cc1C(F)(F)F)C(C)(C)C2 [Example 1.033] | ≤ 5 nM
CCc1cccc(CC)c1-n1nc2c(c1-c1cc(F)c(NC(N)=O)cc1F)CN(Cc1ccc(C)cc1C(F)(F)F)CC2 [Example 1.034] | ≤ 5 nM
CCc1cccc(CC)c1-n1nc2c(c1-c1cc(F)c(NC(N)=O)cc1F)CN(Cc1ccc(C(F)(F)F)cc1Cl)C(C)(C)C2 [Example 1.035] | ≤ 5 nM
CCc1cccc(CC)c1-n1nc2c(c1-c1cc(F)c(NC(N)=O)cc1F)CN(Cc1cc(C(F)(F)F)ccc1C)CC2 [Example 1.036] | ≤ 5 nM
CCc1cccc(CC)c1-n1nc2c(c1-c1cc(F)c(NC(N)=O)cc1F)CN(Cc1cc(C(F)(F)F)ccc1OC)CC2 [Example 1.037] | ≤ 5 nM
CCc1cccc(CC)c1-n1nc2c(c1-c1cc(F)c(NC(N)=O)cc1F)CN(Cc1cc(C(F)(F)F)ccc1Cl)CC2 [Example 1.038] | ≤ 5 nM
CCc1cccc(CC)c1-n1nc2c(c1-c1cc(F)c(NC(N)=O)cc1F)CN(Cc1cc(C(F)(F)F)ccc1F)CC2 [Example 1.039] | ≤ 5 nM
CCc1cccc(CC)c1-n1nc2c(c1-c1cc(F)c(NC(N)=O)cc1F)CN(CC1CCOCC1)C(C)(C)C2 [Example 1.040] | ≤ 5 nM
CCc1cccc(CC)c1-n1nc2c(c1-c1cc(F)c(NC(N)=O)cc1F)CN(Cc1cccn(C)c1=O)CC2 [Example 1.041] | > 500 nM
CCc1cccc(CC)c1-n1nc2c(c1-c1cc(F)c(NC(N)=O)cc1OC)CN(Cc1ccc(C(F)(F)F)cc1C(F)(F)F)CC2 [Example 1.042] | ≤ 5 nM
CCc1cccc(CC)c1-n1nc2c(c1-c1cc(F)c(NC(N)=O)cc1F)CN(CC1CCCC1)C(C)(C)C2 [Example 1.043] | ≤ 5 nM
CCc1cccc(CC)c1-n1nc2c(c1-c1cc(F)c(NC(N)=O)cc1F)CN(Cc1ccc(F)cc1C(F)(F)F)CC2 [Example 1.044] | ≤ 5 nM
CCc1cccc(CC)c1-n1nc2c(c1-c1cc(F)c(NC(N)=O)cc1F)CN(Cc1cc(OC)ccc1C(F)(F)F)CC2 [Example 1.045] | ≤ 5 nM
CCc1cccc(CC)c1-n1nc2c(c1-c1cc(F)c(NC(N)=O)cc1F)CN(Cc1cc(F)ccc1F)CC2 [Example 1.046] | ≤ 5 nM
